Reference: ChEMBL document CHEMBL1201862, “PubChem BioAssay data set” (2004)
Activity calls are given as the source filed them.

What was measured:
[1] = viability loss in Vero cells – cytotoxicity control for Vif-APOBEC3G degradation inhibitor project, dose response (AID 1117358); format: functional; conditions: Vero
[2] = target: T1, Sentrin-specific protease 8 (Homo sapiens, UniProt Q96LD8); format: functional
T1 sequence (Q96LD8 whole entry): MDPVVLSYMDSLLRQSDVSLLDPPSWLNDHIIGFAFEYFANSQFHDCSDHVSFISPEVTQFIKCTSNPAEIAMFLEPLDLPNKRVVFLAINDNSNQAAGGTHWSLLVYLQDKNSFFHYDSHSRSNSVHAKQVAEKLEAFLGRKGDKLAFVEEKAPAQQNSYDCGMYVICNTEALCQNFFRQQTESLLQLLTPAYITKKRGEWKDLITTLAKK

[3] = target: T1, Sentrin-specific protease 8; format: functional; remark: listed apart in the source
Caspase-6 = target: T2, Caspase-6 (Homo sapiens, UniProt P55212); test: inhibition of CASP6 peptide cleavage – biochemical, VEID-R110 fluorescence, cherry-pick, dose response (AID 720632)
T2 sequence (P55212 whole entry): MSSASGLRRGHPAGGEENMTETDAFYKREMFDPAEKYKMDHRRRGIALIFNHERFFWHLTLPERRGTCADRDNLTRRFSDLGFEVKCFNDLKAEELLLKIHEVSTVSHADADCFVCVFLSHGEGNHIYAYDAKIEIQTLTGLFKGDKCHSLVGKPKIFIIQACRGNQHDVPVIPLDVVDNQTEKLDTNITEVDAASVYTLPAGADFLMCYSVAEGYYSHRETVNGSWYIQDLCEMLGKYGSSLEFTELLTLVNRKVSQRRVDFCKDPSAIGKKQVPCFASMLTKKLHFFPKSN

[4] = target: Disintegrin and metalloproteinase domain-containing protein 17 (Homo sapiens, UniProt P78536); test: inhibition of ADAM17 substrate cleavage – biochemical, quenched FRET substrate, counter-screen for ADAM10 exosite inhibitor project, dose response (AID 743253)
Sequence of Disintegrin and metalloproteinase domain-containing protein 17 (P78536 whole entry, the tested form may be a part): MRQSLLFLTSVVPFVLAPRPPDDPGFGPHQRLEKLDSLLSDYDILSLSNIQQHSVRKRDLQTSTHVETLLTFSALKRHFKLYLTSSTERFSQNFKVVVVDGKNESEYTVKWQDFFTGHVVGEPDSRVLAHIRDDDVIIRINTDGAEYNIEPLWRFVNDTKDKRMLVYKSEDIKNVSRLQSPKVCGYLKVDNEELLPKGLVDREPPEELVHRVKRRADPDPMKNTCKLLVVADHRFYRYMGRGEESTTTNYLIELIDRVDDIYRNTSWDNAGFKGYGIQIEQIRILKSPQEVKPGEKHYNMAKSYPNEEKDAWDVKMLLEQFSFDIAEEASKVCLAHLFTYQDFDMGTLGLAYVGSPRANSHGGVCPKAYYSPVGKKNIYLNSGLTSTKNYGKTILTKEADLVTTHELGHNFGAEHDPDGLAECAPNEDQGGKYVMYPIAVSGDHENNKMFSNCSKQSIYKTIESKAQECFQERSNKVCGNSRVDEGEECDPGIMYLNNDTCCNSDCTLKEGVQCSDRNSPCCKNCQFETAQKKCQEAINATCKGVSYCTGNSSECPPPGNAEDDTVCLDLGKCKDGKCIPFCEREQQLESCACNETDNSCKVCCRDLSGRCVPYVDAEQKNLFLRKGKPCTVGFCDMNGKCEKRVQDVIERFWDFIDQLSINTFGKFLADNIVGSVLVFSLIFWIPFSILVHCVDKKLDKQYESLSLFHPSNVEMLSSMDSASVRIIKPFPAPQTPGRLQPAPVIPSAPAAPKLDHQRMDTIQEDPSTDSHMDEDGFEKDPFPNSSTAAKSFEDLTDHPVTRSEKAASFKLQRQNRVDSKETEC

[5] = potency of ADAM10 substrate cleavage blockers – biochemical, QFRET, dose response (AID 743254);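 note: ADAM10 enzyme with the DM2 quenched FRET peptide as substrate; EDANS fluorescence gain as the protease cuts the substrate; inhibitor potency against ADAM10 proteolytic activity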
[6] = Luminescence-based cell-based high throughput dose response assay to identify activators of the DAF-12 from the parasite S. stercoralis (ssDAF-12).; format: functional
[7] = target: T3, Oxysterols receptor LXR-beta (Homo sapiens, UniProt P55055); test: LXR agonists, Gal4 luciferase reporter, dose response, counter-screen for ssDAF-12 agonist project, cell-based, luminescence, HEK293, S. stercoralis campaign (AID 720737); format: functional; conditions: read-out: IC50 (the source's name)
T3 sequence (P55055 whole entry): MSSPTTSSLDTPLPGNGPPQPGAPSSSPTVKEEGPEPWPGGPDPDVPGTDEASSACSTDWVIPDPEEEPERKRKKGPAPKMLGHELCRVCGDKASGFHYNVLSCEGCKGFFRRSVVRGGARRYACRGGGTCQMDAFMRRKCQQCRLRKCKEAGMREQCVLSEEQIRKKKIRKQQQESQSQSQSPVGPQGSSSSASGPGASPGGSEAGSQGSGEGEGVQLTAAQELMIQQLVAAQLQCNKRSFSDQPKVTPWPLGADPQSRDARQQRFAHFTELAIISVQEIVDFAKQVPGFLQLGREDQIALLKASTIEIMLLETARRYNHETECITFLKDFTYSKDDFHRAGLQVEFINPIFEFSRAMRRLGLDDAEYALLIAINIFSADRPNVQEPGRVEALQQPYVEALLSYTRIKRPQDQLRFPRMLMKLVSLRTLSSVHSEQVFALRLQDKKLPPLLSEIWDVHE

[8] = target: T4, Rac GTPase-activating protein 1 (Homo sapiens, UniProt Q9H0H5); test: blockers of MgcRacGAP-driven Rac1 GTP hydrolysis – biochemical, ADP Hunter fluorescence, primary and confirmatory, confirmation (AID 624330); format: functional
T4 sequence (Q9H0H5 whole entry): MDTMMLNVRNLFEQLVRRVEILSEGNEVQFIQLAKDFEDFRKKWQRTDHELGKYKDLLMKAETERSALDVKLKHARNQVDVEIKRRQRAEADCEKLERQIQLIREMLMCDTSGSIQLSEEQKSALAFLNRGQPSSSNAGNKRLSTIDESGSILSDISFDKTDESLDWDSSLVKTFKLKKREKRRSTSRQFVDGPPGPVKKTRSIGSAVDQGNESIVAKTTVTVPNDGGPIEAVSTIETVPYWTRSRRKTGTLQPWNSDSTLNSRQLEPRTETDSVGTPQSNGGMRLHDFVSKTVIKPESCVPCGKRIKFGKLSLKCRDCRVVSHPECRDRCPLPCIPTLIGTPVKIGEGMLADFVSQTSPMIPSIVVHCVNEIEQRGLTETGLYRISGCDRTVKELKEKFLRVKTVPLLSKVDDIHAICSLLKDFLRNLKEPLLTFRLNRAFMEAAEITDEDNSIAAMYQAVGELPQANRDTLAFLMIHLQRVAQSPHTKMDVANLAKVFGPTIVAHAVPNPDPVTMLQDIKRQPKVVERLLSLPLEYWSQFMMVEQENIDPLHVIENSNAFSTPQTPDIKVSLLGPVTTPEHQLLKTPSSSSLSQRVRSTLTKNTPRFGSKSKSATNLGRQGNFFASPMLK

[9] = target: Induced myeloid leukemia cell differentiation protein Mcl-1 (Homo sapiens, UniProt Q07820); format: functional
Sequence of Induced myeloid leukemia cell differentiation protein Mcl-1 (Q07820 whole entry): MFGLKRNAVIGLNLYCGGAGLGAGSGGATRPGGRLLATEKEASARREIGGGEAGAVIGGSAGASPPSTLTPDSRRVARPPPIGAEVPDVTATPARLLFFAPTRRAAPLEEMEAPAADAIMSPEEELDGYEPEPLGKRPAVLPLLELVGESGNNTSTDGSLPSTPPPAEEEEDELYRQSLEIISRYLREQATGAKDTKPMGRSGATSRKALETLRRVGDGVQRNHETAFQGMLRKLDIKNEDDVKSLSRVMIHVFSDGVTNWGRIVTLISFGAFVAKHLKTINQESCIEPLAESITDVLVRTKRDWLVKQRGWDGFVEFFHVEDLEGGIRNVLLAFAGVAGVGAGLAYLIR

[10] = target: Eukaryotic translation initiation factor 4E (Mus musculus, UniProt P63073); test: blockers of eIF4G binding by eIF4E – biochemical, TR-FRET, dose response (AID 855); format: functional;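 note: potency for disrupting eIF4E binding to eIF4GI seen as loss of FRET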
Sequence of Eukaryotic translation initiation factor 4E (P63073 whole entry): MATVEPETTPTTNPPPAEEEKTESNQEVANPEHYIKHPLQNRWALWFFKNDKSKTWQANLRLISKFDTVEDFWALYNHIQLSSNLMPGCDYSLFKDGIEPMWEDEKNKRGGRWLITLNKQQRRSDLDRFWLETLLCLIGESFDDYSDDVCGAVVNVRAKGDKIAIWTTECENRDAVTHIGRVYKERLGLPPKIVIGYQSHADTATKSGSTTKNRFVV

Large T antigen = Large T antigen (Simian virus 40, UniProt P03070); format: functional, Betapolyomavirus macacae;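 note: Confirmatory-stage PubChem screen for compounds that inhibit SV40 T antigen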
Sequence of Large T antigen (P03070 whole entry): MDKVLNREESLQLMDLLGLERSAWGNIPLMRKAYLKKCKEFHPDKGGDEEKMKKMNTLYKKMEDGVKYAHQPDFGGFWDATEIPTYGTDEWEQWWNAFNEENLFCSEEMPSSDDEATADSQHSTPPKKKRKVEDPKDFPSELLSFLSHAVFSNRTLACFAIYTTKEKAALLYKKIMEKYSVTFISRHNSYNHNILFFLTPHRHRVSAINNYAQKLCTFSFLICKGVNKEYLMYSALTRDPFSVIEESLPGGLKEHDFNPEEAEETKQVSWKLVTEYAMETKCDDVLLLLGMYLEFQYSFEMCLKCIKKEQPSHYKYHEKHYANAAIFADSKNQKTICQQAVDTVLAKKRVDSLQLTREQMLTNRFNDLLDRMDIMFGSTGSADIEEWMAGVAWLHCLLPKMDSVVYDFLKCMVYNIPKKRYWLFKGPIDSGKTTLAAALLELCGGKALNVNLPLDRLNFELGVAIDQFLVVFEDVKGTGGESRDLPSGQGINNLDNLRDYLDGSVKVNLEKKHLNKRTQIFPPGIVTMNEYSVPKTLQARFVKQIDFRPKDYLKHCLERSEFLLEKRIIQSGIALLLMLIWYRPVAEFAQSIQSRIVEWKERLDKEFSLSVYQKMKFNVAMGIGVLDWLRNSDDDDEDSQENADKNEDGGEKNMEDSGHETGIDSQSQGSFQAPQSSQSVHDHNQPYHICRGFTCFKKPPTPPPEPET

[11] = target: T5, Histone-lysine N-methyltransferase NSD2 (Homo sapiens, UniProt O96028); format: biochemical
T5 sequence (O96028 whole entry): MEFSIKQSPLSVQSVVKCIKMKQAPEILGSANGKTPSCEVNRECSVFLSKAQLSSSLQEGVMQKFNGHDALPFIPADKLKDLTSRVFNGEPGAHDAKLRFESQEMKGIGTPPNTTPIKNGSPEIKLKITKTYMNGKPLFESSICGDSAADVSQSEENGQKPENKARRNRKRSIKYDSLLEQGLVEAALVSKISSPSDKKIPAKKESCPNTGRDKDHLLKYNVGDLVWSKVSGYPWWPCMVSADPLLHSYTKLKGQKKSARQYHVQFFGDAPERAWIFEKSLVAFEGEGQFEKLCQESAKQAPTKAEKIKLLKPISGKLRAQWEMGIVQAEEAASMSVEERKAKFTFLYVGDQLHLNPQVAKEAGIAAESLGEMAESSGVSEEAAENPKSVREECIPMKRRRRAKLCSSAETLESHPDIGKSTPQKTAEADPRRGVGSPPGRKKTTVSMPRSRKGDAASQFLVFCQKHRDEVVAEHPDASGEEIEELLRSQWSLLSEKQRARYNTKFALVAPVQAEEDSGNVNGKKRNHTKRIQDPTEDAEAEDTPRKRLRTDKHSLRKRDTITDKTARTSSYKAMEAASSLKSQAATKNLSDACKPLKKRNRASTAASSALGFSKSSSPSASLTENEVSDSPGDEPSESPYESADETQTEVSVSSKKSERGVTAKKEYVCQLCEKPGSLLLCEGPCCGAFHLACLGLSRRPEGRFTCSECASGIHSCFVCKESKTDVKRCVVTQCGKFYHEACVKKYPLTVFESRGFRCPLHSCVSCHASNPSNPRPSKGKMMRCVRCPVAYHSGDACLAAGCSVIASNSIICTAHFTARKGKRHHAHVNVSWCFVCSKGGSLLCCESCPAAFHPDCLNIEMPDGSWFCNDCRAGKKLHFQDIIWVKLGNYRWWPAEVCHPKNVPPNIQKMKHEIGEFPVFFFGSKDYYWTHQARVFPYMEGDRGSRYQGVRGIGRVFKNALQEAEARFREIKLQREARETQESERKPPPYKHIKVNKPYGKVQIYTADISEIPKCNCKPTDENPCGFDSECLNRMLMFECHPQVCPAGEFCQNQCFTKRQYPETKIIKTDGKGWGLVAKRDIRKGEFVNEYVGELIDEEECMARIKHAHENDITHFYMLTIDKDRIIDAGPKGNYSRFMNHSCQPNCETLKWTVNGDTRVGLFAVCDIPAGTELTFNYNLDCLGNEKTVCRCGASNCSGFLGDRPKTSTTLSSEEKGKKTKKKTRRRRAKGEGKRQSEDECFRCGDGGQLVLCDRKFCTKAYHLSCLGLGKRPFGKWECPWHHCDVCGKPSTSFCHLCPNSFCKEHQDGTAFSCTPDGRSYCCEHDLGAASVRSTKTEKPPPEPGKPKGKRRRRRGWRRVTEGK

Nonstructural protein 1 = Nonstructural protein 1 (Influenza A virus, UniProt Q194T2); format: functional, Influenza A virus (A/California/07/2009(H1N1))
Sequence of Nonstructural protein 1 (Q194T2 whole entry): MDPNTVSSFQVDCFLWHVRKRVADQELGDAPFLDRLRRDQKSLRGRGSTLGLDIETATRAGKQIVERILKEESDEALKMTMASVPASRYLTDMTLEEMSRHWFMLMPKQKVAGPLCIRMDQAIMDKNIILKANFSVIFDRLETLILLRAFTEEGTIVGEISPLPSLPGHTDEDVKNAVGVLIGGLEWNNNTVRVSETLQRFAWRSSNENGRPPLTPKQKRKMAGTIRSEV

[12] = Luminescence Cell-Based Dose Response to Identify Activators of Luciferase Translation or Activity in H4-C Neuroglioblastoma Cells. [Related pubchem assays: 1829 (Project Summary), 1814 (Primary HTS)]; format: functional
HeLa = test: ATP-based viability loss in HeLa cells – cell-based, CellTiter-Glo luminescence, cherry-pick samples, cytotoxicity control for MITF activator project, dose response (AID 540259); format: functional; conditions: Homo sapiens
H4 = test: Luminescence Cell-Based Dose Response HTS to Identify Activators of 5'UTR Stem-Loop Driven Prion Protein mRNA Translation in H4 Neuroglioblastoma Cells. [Related pubchem assays: 1829 (Project Summary), 1814 (Primary HTS)]; format: functional; conditions: Homo sapiens
[13] = Luminescence Cell-Based Dose Confirmation to Identify Activators of 5'UTR Stem-Loop Driven Alpha-Synuclein mRNA Translation in H4 Neuroglioblastoma Cells. [Related pubchem assays: 1829 (Project Summary), 1814 (Primary HTS)]; format: functional
[14] = Luminescence Cell-Based Dose Response HTS to Identify Activators of Luciferase Translation or Activity in H4 […] Cells. [Related pubchem assays: 1829 (Project Summary), 1814 (Primary HTS)]; format: functional
[15] = Luminescence Cell-Based Dose Response to Identify Activators of 5'UTR Stem-Loop Driven Prion Protein mRNA Translation in H4-C Neuroglioblastoma Cells. [Related pubchem assays: 1829 (Project Summary), 1814 (Primary HTS)]; format: functional

**Q.** Which CC50 [1] does the source give for `COc1ccc(CCNC(=O)CSc2nc(-c3ccco3)cc(C(F)(F)F)n2)cc1` here?
**A.** > 40 µM (active)

**Q.** Which results are given for `O=C1Cc2ccccc2C(=O)N1c1ccc(F)cc1Cl`?
**A.** IC50 [2]: 4.41 µM (active); IC50 [3]: > 100 µM (inactive); AC50 (Caspase-6): 20.4 µM (active)

**Q.** For `COc1ccc(S(=O)(=O)N(C)C[C@@H]2OCCCC[C@H](C)Oc3ccc(NC(=O)Nc4ccc(C(F)(F)F)cc4)cc3C(=O)N([C@H](C)CO)C[C@H]2C)cc1`, which IC50 [4] is on record?
**A.** > 69.5 µM (inactive)

**Q.** What about the IC50 [5] of the same compound?
**A.** > 69.5 µM (inactive)

**Q.** What does the source list for `Nc1nonc1OCCCCOc1nonc1N`?
**A.** IC50 [6]: > 67.6 µM (inactive); EC50 [7]: > 67.6 µM (inactive)

**Q.** Which results are given for `CN(C)c1ccc(/N=c2/sc3ccccc3n2C)cc1`?
**A.** IC50 [8]: 18.9 µM (active); IC50 [9]: 40.2 µM (active); IC50 [10]: > 64 µM (inactive); IC50 (Large T antigen): 11.4 µM (active); AC50 [11]: 10.4 µM (active); IC50 (Nonstructural protein 1): 23.9 µM (active)

**Q.** What does the source list for `Clc1ccc(-c2cn3c(n2)CCC3)cc1`?
**A.** EC50 [12]: 0.299 µM (active); AC50 (HeLa): 173 µM (active); EC50 (H4): > 120 µM (not active); EC50 [13]: 0.319 µM (active); EC50 [14]: < 0.1 µM (active); EC50 [15]: 0.397 µM (active)

**Q.** Which IC50 [6] does the source give for `CC1CCC(NC(=O)c2ccc(S(C)(=O)=O)cc2)CC1` (configuration not stated) here?
**A.** > 67.5 µM (inactive)

**Q.** And the EC50 [7]?
**A.** > 67.5 µM (inactive)
